Assay results taken from patent US20080113927A1, “Indolopyrrolocarbazole derivatives and anti-tumor agent” (priority 2003, published 2008).

How the values were obtained:
[1] = test system: MKN-45 (human stomach cancer cells); assay: Cell-growth inhibitory activity against MKN-45 (WST-8 method); type: cell-based; conditions: 72 h, MKN-45 cells, 3 days incubation, read-out: 50% tumor growth inhibiting activity (IC50)
Method: Method for Determining the Effects of the Agent on Cells
Fetal calf serum (FCS) was obtained from Molgate and the DMEM culture medium from Asahi Technoglass Inc.
Human gastric cancer cell MKN-45 was obtained from the IBL Co., Ltd.
The cells were suspended in 10% FCS-DMEM medium and the suspension was distributed in a 96-well plastic plate in the amount of 1000 cells/50 microliter/well. The plate was incubated at 37° C. in 5% CO2-95% air overnight. Each drug was dissolved in dimethylsulfoxide or a suitable solvent by serial dilution and distributed in the wells at 50 microliters per well in which the cells had been added. The plate was incubated at 37° C. in 5% CO2-95% air for 3 days. The growth of the cultured cells was measured by the WST-8 method (H. Tominaga et al., Anal. Commun., 36, 47-50 (1999)). In the WST-8 method, 10 microliter of WST-8 reagent solution was added, and then incubated at 37° C. for 1 to 6 hours. After stirring the plate, the resulting formazan was quantitatively analyzed by colorimetry to determine the inhibition rate of the drug. Thus, 50% inhibitory concentration (IC50) for the growth was determined for each compound.

[2] = test system: Human lung cancer cells LX-1; assay: Anti-tumor effect on LX-1 solid tumor transplanted subcutaneously in nude mice; type: in vivo, nude mice (Balb/c-nu/nu); conditions: LX-1 in nude mice
Source text: Method for Determining the Effects of the Agent on Animals
Female nude mice of 5 weeks of age (Balb/c-nu/nu) were obtained from Clea Japan, Inc. Human lung cancer cells LX-1 were obtained from the Japanese Foundation for Cancer Research Institute.
The synthesis of the control compound is described in JP-A No. 10-245390, Example 14.
The cancer cells were transplanted subcutaneously to nude mice so that solid cancer can be maintained. The solid cancer was sliced into 3 mm cubic blocks in physiological saline under ice cooling. One of the blocks was transplanted subcutaneously to a nude mouse to be used in experiment (Day 1). The cancer cells were grown subcutaneously in the mouse to form a tumor mass. The size of the mass was measured with a lapse of time, and when the volume reached 0.2 cm^3 or more (approximation by volume=major axis×minor axis^2÷2), administration of the drug was started. The drug was dissolved in 5% glucose solution and administered intravenously at the tail successively twice a week for 2 weeks (total 4 times). Two weeks after the administration, the percentage (T/C%) of the tumor volume (T) was calculated from the tumor volume (C) in the control group and that (T) in the test group as a tumor volume ratio.

Row | Structure (SMILES) | IC50 [1] [nM] | Anti-tumor activity against human lung cancer cells compared with the control compound ([2]; comparison from Table 2) | Ratio of tumor volume Treated/Control (%) ([2]; i.v. twice a week for 2 weeks, total dose 1200 mg/m^2, two weeks after the administration)
1 | O=C1c2c(c3c4ccc(O)cc4n(C4OC(CO)C(O)C(O)C4O)c3c3[nH]c4cc(O)ccc4c23)C(=O)N1NCc1ccncc1 (stereo not shown) [Example 1] | 0.71 | markedly a stronger anti-tumor activity | 1% (1200 mg/m^2)
2 | O=C1c2c(c3c4ccc(O)cc4n(C4OC(CO)C(O)C(O)C4O)c3c3[nH]c4cc(O)ccc4c23)C(=O)N1NCc1ccccn1 (stereo not shown) [Example 2] | 1.4 |  | 
3 | O=C1c2c(c3c4ccc(O)cc4n(C4OC(CO)C(O)C(O)C4O)c3c3[nH]c4cc(O)ccc4c23)C(=O)N1NCc1cccnc1 (stereo not shown) [Example 3] | 0.95 |  | 
4 | O=C1c2c(c3c4ccc(O)cc4n(C4OC(CO)C(O)C(O)C4O)c3c3[nH]c4cc(O)ccc4c23)C(=O)N1NCCCc1cccnc1 (stereo not shown) [Example 4] | 6.3 |  | 
5 | O=C1c2c(c3c4ccc(O)cc4n(C4OC(CO)C(O)C(O)C4O)c3c3[nH]c4cc(O)ccc4c23)C(=O)N1NCc1ccoc1 (stereo not shown) [Example 5] | 2.8 |  | 
6 | O=C1c2c(c3c4ccc(O)cc4n(C4OC(CO)C(O)C(O)C4O)c3c3[nH]c4cc(O)ccc4c23)C(=O)N1NCc1ccco1 (stereo not shown) [Example 6] | 5 |  | 
7 | O=C1c2c(c3c4ccc(O)cc4n(C4OC(CO)C(O)C(O)C4O)c3c3[nH]c4cc(O)ccc4c23)C(=O)N1NCc1ccsc1 (stereo not shown) [Example 7] | 2.7 |  | 
8 | O=C1c2c(c3c4ccc(O)cc4n(C4OC(CO)C(O)C(O)C4O)c3c3[nH]c4cc(O)ccc4c23)C(=O)N1NCc1cccs1 (stereo not shown) [Example 8] | 4.1 |  | 
